Experimental data taken from patent publication US6448202B1, “Withering-preventing and quick-acting nutrition supplementing agent for gramineous plants” (Ajinomoto Co., Inc., priority 1999, dated 2002).

Tested on: lawn grass (European grass, evergreen lawn grass)
Assay: Hydroponic cultivation of a lawn grass: withering prevention and growth
Type: in vivo
Conditions: for Average root length / Leaf length MAX. / Leaf length MIN. / Total weight of living plant: 5 stocks; for Number of days till the plants were withered: from transplantation till about 70 percent of the leaves were withered
Procedure: Seedlings of a lawn grass (European grass, evergreen lawn grass) were cultivated and divided into eight groups of A to H, one group being composed of 80 stocks. In the groups B to H, inosine and uridine were added to each hydroponic liquid in such amount that the concentration became as shown in the table, and proline was diluted with water such that the concentration became as shown in the table and sprayed onto the leaves every day. Group A was the control.
On the 35th day, five average stocks which had not been withered were sampled from each group. […] In the table, the number of days till the plants were withered means the number of days from transplantation of the seedlings till about 70 percent of the leaves were withered.

[1] = group B: 2 ppm inosine in hydroponic liquid
[2] = group B: 2 ppm inosine in hydroponic liquid, 35th day
[3] = group D: 2 ppm proline sprayed onto leaves every day, 35th day
[4] = group F: 35 ppm proline sprayed onto leaves every day, 35th day
[5] = group G: 0.1 ppm proline sprayed onto leaves every day, 35th day

`OC[C@H]1O[C@@H](n2cnc3c(O)ncnc32)[C@H](O)[C@@H]1O` [inosine, reference compound] was tested, and the Remarks [1] was “Wilted and partially”, the Average root length [2] was 2 cm and the “Leaf length MAX.” value [2] was 27 cm. The “Leaf length MIN.” value [2] was 8 cm, the “Total weight of living plant” value [2] was 0.22 g and the “Number of days till the plants were withered” value (“Number” below) [1] was 25 days.

`O=C(O)[C@@H]1CCCN1` [proline] was tested, and the Remarks (group D: 2 ppm proline) was “Both leaves and steins”, the Average root length [3] was 3 cm and the “Leaf length MAX.” value [3] was 21 cm. For the same compound, the “Leaf length MIN.” value [3] was 12 cm, the “Total weight of living plant” value [3] was 0.54 g and the “Number” value (group D: 2 ppm proline) was 38 days. The Remarks (group F: 35 ppm proline) was “Partially wilted”, the Average root length [4] was 2 cm and the “Leaf length MAX.” value [4] was 20 cm. The “Leaf length MIN.” value [4] was 8 cm, the “Total weight of living plant” value [4] was 0.28 g and the “Number” value (group F: 35 ppm proline) was 28 days. The Remarks (group G: 0.1 ppm proline) was “Partially wilted”, the Average root length [5] was 2 cm and the “Leaf length MAX.” value [5] was 19 cm. For the same compound, the “Leaf length MIN.” value [5] was 7 cm, the “Total weight of living plant” value [5] was 0.22 g and the “Number” value (group G: 0.1 ppm proline) was 27 days. The “Growth at the root, leaf length and total weight of the living plants” value (proline-treated plot, especially at a concentration of 2 ppm, 35th day) was “better growth”.
